The values below come from ChEMBL document CHEMBL5209579, “Flow cytometry transport assay for SLC2A4 using HEK293 JumpIN TRex SLC2A4 WT-OE cells” (2022).

For this test, the target named is T1, Solute carrier family 2, facilitated glucose transporter member 4 (Homo sapiens, UniProt P14672).
T1 sequence (P14672 whole entry): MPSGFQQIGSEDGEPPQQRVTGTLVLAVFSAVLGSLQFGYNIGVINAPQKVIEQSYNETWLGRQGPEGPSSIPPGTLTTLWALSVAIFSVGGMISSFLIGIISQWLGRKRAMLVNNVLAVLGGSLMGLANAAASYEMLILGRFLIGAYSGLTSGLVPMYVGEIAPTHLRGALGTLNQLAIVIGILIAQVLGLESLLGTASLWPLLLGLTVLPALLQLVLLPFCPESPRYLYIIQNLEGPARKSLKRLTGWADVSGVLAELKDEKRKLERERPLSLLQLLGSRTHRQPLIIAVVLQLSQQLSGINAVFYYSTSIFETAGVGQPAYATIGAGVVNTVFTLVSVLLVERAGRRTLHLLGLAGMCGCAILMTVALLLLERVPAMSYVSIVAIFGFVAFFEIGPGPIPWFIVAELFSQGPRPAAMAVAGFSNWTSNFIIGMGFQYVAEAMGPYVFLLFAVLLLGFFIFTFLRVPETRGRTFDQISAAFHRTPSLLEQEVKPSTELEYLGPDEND
The experiment in a line: Inhibition of the Glucose Transporter (GLUT4, SLC2A4) as assessed by a FRET based flow cytometry assay using a genetically-encoded biosensor for measuring free glucose (FLII12Pglu-700uDelta6) in HEK293 JumpIN TRex SLC2A4 WT-OE cells (PubChem AID: 1794828). The test is classed as functional, cell-based. (In general: A flow cytometer gives signals particle by particle.)

For the molecule `Cc1c(NC(=O)c2cc(C(N)=O)nc3cc(F)ccc23)c(C(F)(F)F)nn1Cc1ccc(C#N)cc1` [BAY-876], it took 5.5 µM to reach half-maximal inhibition (IC50).
In the case of `O=C(Oc1cccc(F)c1OC(=O)c1cccc(O)c1)c1cccc(O)c1`, inhibition was half-maximal at 2.5 µM (IC50).
For the molecule `OC[C@H]1OC(O)[C@H](O)[C@@H](O)[C@@H]1O` (stereo partly drawn) [DEXTROSE], the EC50 (commonly the concentration at which the effect is half-maximal) is 860 µM.
